Results: patent US20230339983A1, “FLUORESCENT COMPOUNDS SPECIFIC FOR PLURIPOTENT STEM CELLS AND REPROGRAMMING-READY CELLS AND METHODS OF USING THE SAME” (Agency for Science, Technology and Research, priority 2018, published 2023)

How the values were obtained:
[1] = system: reprogramming ASCs; experiment: BDL-E5 live staining time course of episomally reprogrammed ASCs on MG; type: cell-based, human
Description: Episomal plasmids developed by Yamanaka's lab were obtained from Addgene: pCXLEhOct3/4-shp53-F (Addgene #27077), pCXLE-hSK (Addgene #27078), pCXLE-hUL (Addgene #27080) and pCXLE-EGFP (Addgene #27082) (Okita, et al. (2011). Nat Methods 8, 409-412). 1×10^6 cells were suspended together with 1 μg of each episomal vector in Nucleofector solution supplied in the Nucleofector Kit R (Lonza). Then the cells were transfected with the Program FF-113 on a Nucleofector 2b Device. The transfected cells were then cultured in ASC or DPSC medium (MSC medium) supplemented with 0.5 mM sodium butyrate, with daily media change. On Day 7 dpn, 1×10^5 viable cells were seeded over MEF feeders (GlobalStem) into one well of a 6-well plate for feeder-based iPS derivation; 2×10^5 viable cells were seeded for feeder-free iPS derivation into one well of a 6-well plate pre-coated with Matrigel (Corning). The next day, MSC medium was changed to feeder-based hES medium (DMEM/F12 supplemented with 20% knock out serum replacement, 1% GlutaMAX, 1% NEAA, Pen/Strep, 0.1 mM p-mercaptoethanol and 10 ng/ml b-FGF) or to feeder-free mTeSR1 (StemCell Technologies), supplemented with sodium butyrate. At 12 dpn, supplementation of sodium butyrate was stopped, and conditioned further with SMC4 cocktail (consisting of small molecules: PD0325901, CHIR99021, Thiazovivin, and SB431542 (FOCUS Biomolecules)) in hES medium/mTeSR1. This media supplement was continued until initial colony formation began.
Reprogrammed cells were immune-stained with fluorescent live cell stain TRA-1-60 (R&D Systems, GloLIVE NL557) as per manufacturer's instructions. After incubating with the live staining antibodies for 30 min and Hoechst 33342 for 10 min, cells were washed 3 times with PBS and images with the Cy5 and DAPI channels, respectively, were immediately captured.
Further experiments were carried out using BDL-E5. To determine whether BDL-E5 identifies the early stages of pluripotency, ASCs and DPSCs were reprogrammed using nucleofection of episomal vectors, and seeded onto MG-coated plates (feeder-free, viral-free reprogramming method). […]

[2] = system: DPSCs; experiment: Proliferation assay (Trypan Blue viable cell count); type: cell-based, human; details: 500 nM
Description: To ensure that BDL-E5 was not toxic to the cells, DPSCs were incubated with BDL-E5 (500 nM) for 48 h and 72 h and viable cells were counted in a haemocytometer using the Tryphan Blue method. DPSCs in which CREB1 was over-expressed or silenced were also counted at 72 h post nucleofection to determine if gene manipulation has affected the cell proliferation.

[3] = system: reprogramming DPSCs at 7 dpn; experiment: Fluorescent subcellular organelle co-staining; type: cell-based, human; details: confocal; ER, Golgi, lysosome, mitochondria marker dyes
From the text: Reprogrammed DPSCs at 7 dpn on MG were stained for cell organelle marker dyes (Molecular Probes) for endoplasmic reticulum (ER) (ER-Tracker™ Green (BODIPY® FL Glibenclamide)), Golgi complex (BODIPY® FL C5-Ceramide (N-(4,4-Difluoro-5,7-Dimethyl-4-Bora-3a,4a-Diaza-s-Indacene-3-Pentanoyl)Sphingosine)), lysosome (LysoTracker® Green DND-26), or mitochondria (MitoTracker® Green FM). Confocal images were taken to visualize the staining.
To determine the subcellular organelle localization of BDL-E5 in reprogramming cells, 7 dpn DPSCs on MG were stained for BDL-E5 and organelle marker dyes for endoplasmic reticulum (ER), Golgi complex, lysosome, or mitochondria.

[4] = system: reprogrammed ASCs and DPSCs on microcarriers; experiment: Fluorescent probe staining on Cytodex 3 microcarriers (3D culture); type: cell-based, human; details: 14 and 21 dpn
Description: Reprogrammed monolayer ASCs and DPSCs were dissociated into single cell suspension using Dispase. Single cell suspension was transferred into a 6-well Suspension Culture Plate (Greiner bio-one) with Matrigel (Geltrex™, ThermoFisher)-coated Cytodex 3 microcarrier in 4 ml of mTeSR1 supplemented with 10 μM of Rock Inhibitor Y27632 (Calbiochem). The plate was placed on an orbital shaker (110 rpm) for at least 2 hours for cell attachment. Afterward, the plate was transferred to static condition and incubated at 37° C./5% CO2. Media change was carried out with mTeSR1 daily thereafter by aspirating […] of spent medium from the well and adding 4 ml of fresh media (80% medium exchange). On Day 7, the cells on microcarriers were supplemented and maintained with 4 ml of mTeSR1+SMC4 media. 80% medium change was carried out every day.
BDL-E5 probe staining of reprogrammed ASCs and DPSCs on microcarriers was carried out on Day 14 and 21 dpn. The microcarrier culture was washed twice with sterile D-PBS. Prior to staining, media was changed to mTeSR1 with 500 nM BDL-E5 probe and Alexa Fluor® 488 Mouse anti-human TRA-1-60 (200× dilution) (BD Pharmingen™). Cultures were incubated for 1 hour. The cells were then washed twice with D-PBS and replaced with mTeSR1 prior to imaging. Images were taken using Axio Observer Fluorescent Microscope (Carl Zeiss). […]

[5] = Absorption and emission maxima of the probe; type: physicochemical
Description: The chemical properties of the BDL library are previously described (Jeong et al., 2015). BDL-E5 is based on 4,4-difluoro-4-bora-3a,4a-diaza-s-indacene (BODIPY), with calculated mass of 528.3 and absorption maximum/emission maximum of 578/599 nm. Primary, secondary and tertiary screening of fluorescent probes on AiPS, ASCs, DiPS and DPSCs were performed as described previously (Im, et al. (2010). Angew Chem Int Ed Engl 49, 7497-7500; Kang, et al. (2011). Nat Protoc 6, 1044-1052) and in the Results section. Unless described otherwise, BDL-E5 and CDy1 images were acquired by the Tetramethylrhodamine (TRITC) channel of ImageXpress Micro High-Content Imaging System, which had the Adaptive Background Correction function enabled.

## COc1cc(F)c(/C=C/c2cc(C)c3n2[B-](F)(F)[N+]2=C(CCC(=O)NCCN(C)C)C=CC2=C3)cc1OC [BDL-E5]
[1]; iPS colonies formed from ASCs
  intensity of fluorescence of staining at 7, 14, 21, 28 dpn: increased with increasing time
[1]; reprogrammed ASCs, staining every 48 h, 10-24 dpn
  fate of stained cells tracked in the same field of view until colony formation: only cells staining positive for BDL-E5 formed iPS colonies
[1]; reprogramming ASCs, MG-coated plates, episomal feeder-free
  time at which positive cells/colonies were found: around 14 dpn
[2]
  toxicity to cells: not toxic
[3]
  subcellular organelle localization: co-localize significantly with Golgi complex staining
[4]; 500 nM, 1 h
  staining of reprogrammed cells on microcarriers: clearly observed
[4]
  background staining of Cytodex 3 microcarriers themselves: no background BDL-E5 staining
[5]
  absorption maximum: 578 nm
  emission maximum: 599 nm
